The results in this text go back to paper PMC11191095, “QSAR Reveals Decreased Lipophilicity of Polar Residues Determines the Selectivity of Antimicrobial Peptide Activity” (ACS Omega, 2024).

Test in all cases: microbe, parasite or virus in culture
The test system of assay [1] is C. auris TDG 1912. It counts as cell-based, Candida auris. The note with it: Candidozyma auris, TDG1912, read-out: Modal MIC (antibiogram). As to the method: (§1) Antimicrobial activity was evaluated against a panel of 18 pathogens consisting of eight Gram-negative strains (E. coli NCTC 12923, E. coli LEC001, Pseudomonas aeruginosa PAO1, P. aeruginosa NCTC 13437, Acinetobacter baumannii ATCC 17978, A. baumannii AYE, Klebsiella pneumoniae M6, K. pneumoniae NCTC 13368), four Gram-positive strains (Staphylococcus aureus ATCC 9144, S. aureus NCTC 13616, S. aureus USA300, S. aureus 1199B) and six fungi (Candida auris TDG 1912, C. albicans NCPF 8018, C. krusei NCPF 3876, C. tropicalis NCPF 8760, and C. parapsilosis NCPF 3209). Pathogens were grown in noncation adjusted Mueller Hinton broth (MHB, for bacteria) or Roswell Park Memorial Institute (RPMI 1640) + 2% glucose (for fungi) at 37 °C with 180 rpm shaking and maintained on solid media (tryptic soy agar for bacteria and Sabouraud dextrose agar for fungi). For an antibiogram, see Suppl.
(§2) The 46 peptides were serially diluted (128 to 2 μg/mL) in media down polypropylene 96-well plates. Bacteria or fungi, diluted from an overnight culture to an OD600 of 0.01, were added to the serially diluted peptides at a 1:1 ratio resulting in a starting cell density of ∼5 × 10^5 CFU/mL. Plates were incubated at 37 °C for 20 h, and the optical density was determined spectrophotometrically at 600 nm. Minimum inhibition concentrations (MICs) were determined from a minimum of three biological repeats and are reported in μg/mL as well as μM. […] The MIC50 or MIC90 is defined as the lowest peptide concentration that results in 50% or 90% growth inhibition over a 20 h treatment period, respectively.

Assay [2] has as its system C. tropicalis NCPF 8760. It is filed as cell-based. The note with it: for MIC: Candida tropicalis, NCPF8760, read-out: Modal MIC (antibiogram); for Modal MIC50 / Modal MIC90: NCPF 8760, 20 h. As to the method:
as §1, §2

Assay [3] has as its system C. glabrata NCPF 8018. It is filed as cell-based. The note with it: for MIC: Nakaseomyces glabratus, NCPF8018, read-out: Modal MIC (antibiogram); for Modal MIC50 / Modal MIC90: NCPF 8018, 20 h. How it is done:
as §1, §2

Assay [4] concerns C. parapsilosis NCPF 3209. It counts as cell-based. The note with it: for MIC: Lodderomyces parapsilosis, NCPF3209, read-out: Modal MIC (antibiogram); for Modal MIC50 / Modal MIC90: NCPF 3209, 20 h. As to the method: as §1, §2
For assay [5], the system named is C. albicans NCPF 3281. It is filed as cell-based. The note with it: for MIC: Candida albicans, NCPF3281, read-out: Modal MIC (antibiogram); for Modal MIC50 / Modal MIC90: NCPF 3281, 20 h. As to the method:
as §1, §2

For assay [6], the system named is C. krusei NCPF 3876. It counts as cell-based. As to conditions: for MIC: Pichia kudriavzevii, NCPF3876, read-out: Modal MIC (antibiogram); for Modal MIC50 / Modal MIC90: NCPF 3876, 20 h. How it is done:
as §1, §2

Assay [7] deals with A. baumannii ATCC 17978. It counts as cell-based, Acinetobacter baumannii. The note with it: ATCC 17978, 20 h. How it is done: as §1, §2
Assay [8] deals with A. baumannii AYE. It counts as cell-based, Acinetobacter baumannii. The note with it: AYE, 20 h. As to the method:
as §1, §2

Assay [9] concerns E. coli NCTC 12923. It counts as cell-based, Escherichia coli. The note with it: NCTC 12923, 20 h. As to the method:
as §1, §2

The test system of assay [10] is S. aureus (MSSA) ATCC 9144. It is filed as cell-based, Staphylococcus aureus. The note with it: ATCC 9144, 20 h. As to the method: as §1, §2

Each structure is given as a SMILES string. Converted amounts (≈) assume the structure as drawn. Where a SMILES comes first, the peptide text is derived from it.

As for `OC(Cn1cncn1)(Cn1cncn1)c1ccc(F)cc1F` [Fluconazole, reference compound], the MIC in assay [1] was above 128 µg/mL; in [2], 16 µg/mL (≈ 52.2 µM); in [3], 4 µg/mL (≈ 13.1 µM); in assay [4] it was 0.25 µg/mL (≈ 0.816 µM); in [5], 0.06 to 0.125 µg/mL (≈ 0.196 to 0.408 µM); in assay [6], 8 µg/mL (≈ 26.1 µM).
With `CC[C@H](C)C[C@H](C)CCCCCCCCC(=O)N[C@H]1C[C@@H](O)[C@@H](NCCN)NC(=O)[C@@H]2[C@@H](O)CCN2C(=O)[C@H]([C@H](O)CCN)NC(=O)[C@H]([C@H](O)[C@@H](O)c2ccc(O)cc2)NC(=O)[C@@H]2C[C@@H](O)CN2C(=O)[C@H]([C@@H](C)O)NC1=O` [Caspofungin, reference compound], the MIC in assay [1] was 0.03 µg/mL (≈ 0.0274 µM); in assay [2], at most 0.007 µg/mL; in assay [3], at most 0.007 µg/mL; in assay [4] it was 0.125 µg/mL (≈ 0.114 µM); in [5], at most 0.007 µg/mL; in assay [6], at most 0.007 µg/mL.
Consider `CC(C)C[C@H](NC(=O)CNC(=O)[C@H](Cc1ccccc1)NC(=O)[C@H](CCCCN)NC(=O)[C@H](Cc1ccccc1)NC(=O)[C@H](C)NC(=O)[C@@H](N)CCCCN)C(=O)N[C@@H](CCCCN)C(=O)N[C@H](C(=O)N[C@H](C(N)=O)C(C)C)[C@@H](C)O` [CPF-MW-10a] (H-KAFKFGLKTV-NH2), for which the “Modal MIC50” value in assay [2], in assay [3], in assay [4], in assay [5] and in [6] was above 110.8 µM each time. In addition, the “Modal MIC90” value in [2], in assay [3], in assay [4], in [5] and in assay [6] was above 110.8 µM throughout.
For `Cc1ccc(Oc2ccccc2-c2csc(N=C3NCCCN3)n2)c(C)c1` [Abafungin, reference compound], the MIC in assay [1] was above 128 µg/mL; in assay [2], above 128 µg/mL; in [3] it was above 128 µg/mL; in assay [4] it was 0.25 to 0.5 µg/mL (≈ 0.661 to 1.32 µM); in assay [5] it was above 128 µg/mL; in [6], 0.25 µg/mL (≈ 0.661 µM).
For the molecule `CC[C@H](C)[C@H](NC(=O)[C@H](CCCCN)NC(=O)[C@H](CC(C)C)NC(=O)[C@H](C)NC(=O)[C@H](C)NC(=O)[C@H](CCCCN)NC(=O)[C@H](CC(C)C)NC(=O)[C@H](C)NC(=O)[C@H](CCCCN)NC(=O)CN)C(=O)NCC(=O)N[C@@H](C)C(=O)N[C@@H](CC(N)=O)C(=O)N[C@H](C(=O)N[C@@H](CC(C)C)C(=O)NCC(=O)NCC(=O)N[C@@H](C)C(=O)N1CCC[C@H]1C(=O)N[C@@H](CCC(N)=O)C(N)=O)C(C)C` [CPF-P3-20a] (H-GKALKAALKIGANVLGGAPQ-NH2), the “Modal MIC” value in assay [7], in [8] and in [9] was 65.7 µM in each case. In addition, the “Modal MIC50” value in assay [2], in [3], in [4], in [5] and in assay [6] was above 65.7 µM each time. For the same molecule, the “Modal MIC90” value in [2], in assay [3], in [4], in assay [5] and in assay [6] was above 65.7 µM each time.
As to `CC[C@H](C)[C@H](NC(=O)[C@H](CCCCN)NC(=O)CNC(=O)[C@@H](N)CC(C)C)C(=O)N[C@@H](C)C(=O)N[C@@H](CCCCN)C(=O)N[C@H](C(=O)NCC(=O)N[C@@H](CC(C)C)C(=O)N[C@@H](CCCCN)C(N)=O)C(C)C` [XPF10a] (H-LGKIAKVGLK-NH2), the “Modal MIC50” value in assay [2], in assay [3], in assay [4], in [5] and in [6] was above 120.6 µM each time. Also, the “Modal MIC90” value in assay [2], in assay [3], in [4], in [5] and in assay [6] was above 120.6 µM throughout.
Regarding `CC[C@H](C)[C@H](NC(=O)CNC(=O)[C@H](CCCCN)NC(=O)[C@@H](N)Cc1c[nH]c2ccccc12)C(=O)N[C@@H](CCCNC(=N)N)C(=O)NCC(=O)N[C@@H](Cc1ccc(O)cc1)C(=O)N[C@@H](CCCCN)C(=O)NCC(=O)NCC(=O)N[C@@H](Cc1ccc(O)cc1)C(=O)N[C@@H](CCCCN)C(=O)NCC(=O)N[C@@H](C)C(=O)N[C@@H](Cc1ccccc1)C(=O)N[C@@H](CCCCN)C(=O)N[C@@H](CCC(N)=O)C(=O)N[C@H](C(=O)N[C@@H](CCCCN)C(=O)N[C@@H](Cc1ccc(O)cc1)C(N)=O)[C@@H](C)O` [W(Os-C)a] (H-WKGIRGYKGGYKGAFKQTKY-NH2), the “Modal MIC” value in assay [10] is listed as 54.4 µM; in assay [7], 27.2 µM; in assay [8] it was 13.6 µM. In addition, the “Modal MIC50” value in assay [2], in assay [3], in [4], in [5] and in assay [6] was above 54.4 µM in each case. The “Modal MIC90” value in assay [2], in assay [3], in assay [4], in [5] and in assay [6] was above 54.4 µM in each case.
Turning to `CC(C)C[C@H](NC(=O)CNC(=O)[C@H](Cc1ccccc1)NC(=O)[C@H](CCCCN)NC(=O)[C@H](Cc1ccccc1)NC(=O)[C@H](C)NC(=O)[C@@H](N)CCCCN)C(=O)N[C@@H](CCCCN)C(=O)N[C@H](C(=O)N[C@H](C(=O)NCC(=O)N[C@@H](CCCCN)C(N)=O)C(C)C)[C@@H](C)O` [CPF-MW-12a] (H-KAFKFGLKTVGK-NH2), the “Modal MIC50” value in [2], in assay [3], in assay [4], in [5] and in assay [6] was above 95.5 µM in each case. Further, the “Modal MIC90” value in [2], in [3], in assay [4], in assay [5] and in assay [6] was above 95.5 µM in each case.
For the molecule `C[C@@H]1[C@H](O)[C@@H](C)/C=C/C=C/C=C/C=C/C=C/C=C/C=C/[C@H](O[C@@H]2O[C@H](C)[C@@H](O)[C@H](N)[C@@H]2O)C[C@@H]2O[C@](O)(C[C@@H](O)C[C@@H](O)[C@H](O)CC[C@@H](O)C[C@@H](O)CC(=O)O[C@H]1C)C[C@H](O)[C@H]2C(=O)O` [Amphotericin B, reference compound], the MIC in assay [1] is 0.03 µg/mL (≈ 0.0325 µM); in [2], 0.03 µg/mL (≈ 0.0325 µM); in [3] it was 0.03 µg/mL (≈ 0.0325 µM); in assay [4], at most 0.007 µg/mL; in [5] it was 0.015 µg/mL (≈ 0.0162 µM); in assay [6] it was 0.06 µg/mL (≈ 0.0649 µM).
For `C[C@@H](c1ncncc1F)[C@](O)(Cn1cncn1)c1ccc(F)cc1F` [Voriconazole, reference compound], the MIC in assay [1] was 1 µg/mL (≈ 2.86 µM); in assay [2], 0.5 µg/mL (≈ 1.43 µM); in assay [3], 0.125 µg/mL (≈ 0.358 µM); in assay [4], at most 0.007 µg/mL; in [5], at most 0.007 µg/mL; in assay [6], 0.06 µg/mL (≈ 0.172 µM).
